Like-named read-outs stand apart in the source and are kept apart here.
What was measured:
MRC-5 cells = experiment: Cytotoxic effect microscopically visible in the HCoV-OC43 screening; format: cell-based, human; parameters: key: -: Cytotoxic effect microscopically visible; details: 33 µM
Hep-2 cells = experiment: Cytotoxic effect microscopically visible in the RSV-A2 screening; format: cell-based, human; parameters: key: -: Cytotoxic effect microscopically visible
HCoV-OC43 = experiment: Virus inhibition assay (focus reduction), HCoV-OC43 on MRC-5 cells; format: cell-based, human coronavirus; details: for EC50: Betacoronavirus 1, OC43, MRC5, read-out: EC50 (µM) (95% CI); for activity at 0.3 µM / activity at 3 µM / activity at 33 µM: Betacoronavirus 1, OC43, MRC5, 20 h, read-out: Residual Virus Infectivity (%) HCoV-OC43
IFV-A H1N1 = experiment: Virus inhibition assay (focus reduction), IFV-A H1N1 on MDCK cells; format: cell-based; details: Influenza A virus, read-out: EC50 (µM) (95% CI)
[1] = Cell viability MTS assay on MDCK cells; details: dog
[2] = Cell viability MTS assay on MRC-5 cells; format: cell-based; details: human, same conditions as HCoV inhibition assay, read-out: CC50 (µM) (95% CI)
MDCK cells = experiment: Cytotoxic effect microscopically visible in the IFV-A H1N1 screening; format: cell-based, canine; parameters: key: -: Cytotoxic effect microscopically visible; details: 33 µM
RSV-A2 = experiment: Virus inhibition assay (plaque reduction), RSV-A2 on Hep-2 cells; format: cell-based; details: human respiratory syncytial virus; for activity at 0.3 µM / activity at 3 µM / activity at 33 µM: HEp-2, 72 h, read-out: Residual Virus Infectivity (%) RSV-A2
[3] = Cell viability MTS assay on Hep-2 cells; details: human
in vitro [4] = details: human
in vitro [5] = details: dog
[6] = RSV-A2, Hep-2 cells, read-out: EC50 (µM) (95% CI)

Compound: O=C(N[C@@H](Cc1ccc(O)cc1)C(=O)O)c1cc(-c2ccccc2)c(=O)n2c1sc1cc(OC3CCCCC3)ccc12 [Compound 5]
- Cytotoxic effect microscopically visible (MRC-5 cells): -
- Cytotoxic effect microscopically visible (Hep-2 cells; 33 µM): -

Compound: O=C(N[C@@H](Cc1ccc(O)cc1)C(=O)O)c1cc(-c2cccs2)c(=O)n2c1sc1ccc(OC3CCCCC3)cc12 [Compound 25]
- EC50 (HCoV-OC43): 0.29 µM
- EC50 (IFV-A H1N1): 13.7 µM
- CC50 [1]: 86.1 µM
- Cytotoxic effect microscopically visible (Hep-2 cells; 33 µM): -
- CC50 [2]: 16.5 µM

Compound: CCN(CC)CCOc1ccc2sc3c(C(=O)Oc4ccc(S(N)(=O)=O)cc4)cc(-c4ccccc4)c(=O)n3c2c1 [Compound 28]
- Cytotoxic effect microscopically visible (MRC-5 cells): -
- Cytotoxic effect microscopically visible (Hep-2 cells; 33 µM): -
- Cytotoxic effect microscopically visible (MDCK cells): -

Compound: CC(CC(=O)O)NC(=O)c1cc(-c2ccccc2)c(=O)n2c1sc1ccc(OC3CCCCC3)cc12 (centres unmarked) [Compound 21]
- Cytotoxic effect microscopically visible (MRC-5 cells): -
- Cytotoxic effect microscopically visible (Hep-2 cells; 33 µM): -
- Cytotoxic effect microscopically visible (MDCK cells): -

Compound: O=C(N[C@@H](Cc1ccc(O)cc1)C(=O)O)c1ccc(=O)n2c1sc1ccc(OC3CCCCC3)cc12 [Compound 27]
- EC50 (HCoV-OC43): 10 µM
- CC50 [2]: 189 µM

Compound: O=C(NCc1ccccc1)c1cc(-c2ccccc2)c(=O)n2c1sc1ccc(OC3CCCCC3)cc12 [Compound 3]
- activity at 0.3 µM (RSV-A2): 100%
- activity at 3 µM (RSV-A2): 93%
- activity at 33 µM (RSV-A2): 67%

Compound: CCN(CC)CCCC(C)Nc1ccnc2cc(Cl)ccc12 (centres unmarked) [chloroquine, reference compound]
- EC50 (HCoV-OC43): 0.19 µM

Compound: NS(=O)(=O)c1ccc(OC(=O)c2cc(-c3ccccc3)c(=O)n3c2sc2ccc(OC4CCCCC4)cc23)cc1 [Compound 23]
- EC50 (HCoV-OC43): 0.23 µM
- Cytotoxic effect microscopically visible (Hep-2 cells; 33 µM): -
- CC50 [2]: 18.2 µM

Compound: O=C(c1cc(-c2ccccc2)c(=O)n2c1sc1ccc(OC3CCCCC3)cc12)N1CCC[C@@H](O)C1 [Compound 11]
- Cytotoxic effect microscopically visible (MRC-5 cells): -
- Cytotoxic effect microscopically visible (Hep-2 cells; 3 µM): -
- Cytotoxic effect microscopically visible (Hep-2 cells; 33 µM): -
- Cytotoxic effect microscopically visible (MDCK cells): -

Compound: CCN(CC)CCOc1ccc(-c2cc(C(=O)Oc3ccc(S(N)(=O)=O)cc3)c3sc4ccc(OC5CCCCC5)cc4n3c2=O)cc1 [Compound 22]
- Cytotoxic effect microscopically visible (Hep-2 cells; 33 µM): -
- Cytotoxic effect microscopically visible (MDCK cells): -

Compound: O=C(N[C@@H](Cc1ccc(O)cc1)C(=O)O)c1cc(-c2ccc(Cl)cc2)c(=O)n2c1sc1ccc(OC3CCCCC3)cc12 [Compound 9]
- EC50 (HCoV-OC43): 1.2 µM
- Cytotoxic effect microscopically visible (Hep-2 cells; 33 µM): -
- CC50 [2]: 55.6 µM

Compound: CC(C)C(CC(=O)O)NC(=O)c1cc(-c2ccccc2)c(=O)n2c1sc1ccc(OC3CCCCC3)cc12 (centres unmarked) [Compound 19]
- Cytotoxic effect microscopically visible (MRC-5 cells): -
- Cytotoxic effect microscopically visible (Hep-2 cells; 33 µM): -
- Cytotoxic effect microscopically visible (MDCK cells): -

Compound: O=C(NCc1ccc(O)cc1)c1cc(-c2ccccc2)c(=O)n2c1sc1ccc(OC3CCCCC3)cc12 [Compound 13]
- activity at 0.3 µM (HCoV-OC43): 100%
- activity at 3 µM (HCoV-OC43): 100%
- activity at 33 µM (HCoV-OC43): 64%
- activity at 0.3 µM (RSV-A2): 100%
- activity at 3 µM (RSV-A2): 15%
- activity at 33 µM (RSV-A2): 0%
- EC50 (RSV-A2; HEp-2, read-out: EC50 (µM) (95% CI)): 2.87 µM
- CC50 [3]: > 200 µM

Compound: O=C(O)CC(NC(=O)c1cc(-c2ccccc2)c(=O)n2c1sc1ccc(OC3CCCCC3)cc12)c1ccccc1 (centres unmarked) [Compound 6]
- Cytotoxic effect microscopically visible (MRC-5 cells): -
- Cytotoxic effect microscopically visible (Hep-2 cells; 3 µM): -
- Cytotoxic effect microscopically visible (Hep-2 cells; 33 µM): -

Compound: NS(=O)(=O)c1ccc(OC(=O)c2ccc(=O)n3c2sc2ccc(OC4CCCCC4)cc23)cc1 [Compound 24]
- Cytotoxic effect microscopically visible (MRC-5 cells): -
- Cytotoxic effect microscopically visible (Hep-2 cells; 33 µM): -
- Cytotoxic effect microscopically visible (MDCK cells): -

Compound: O=C(NCC1(C(=O)O)CC1)c1cc(-c2ccccc2)c(=O)n2c1sc1ccc(OC3CCCCC3)cc12 [Compound 4]
- Cytotoxic effect microscopically visible (MRC-5 cells): -
- Cytotoxic effect microscopically visible (Hep-2 cells; 33 µM): -

Compound: O=C(O)CCNC(=O)c1cc(-c2ccccc2)c(=O)n2c1sc1ccc(OC3CCCCC3)cc12 [Compound 10]
- EC50 (HCoV-OC43): 7.97 µM
- Cytotoxic effect microscopically visible (Hep-2 cells; 33 µM): -
- CC50 [2]: > 200 µM

Compound: O=C(N[C@@H](Cc1ccc(O)cc1)C(=O)O)c1cc(-c2ccccc2F)c(=O)n2c1sc1ccc(OC3CCCCC3)cc12 [Compound 15]
- activity at 0.3 µM (RSV-A2): 86%
- activity at 3 µM (RSV-A2): 85%
- activity at 33 µM (RSV-A2): 40%

Compound: NS(=O)(=O)c1ccc(OC(=O)c2cc(NCCN3CCOCC3)c(=O)n3c2sc2ccc(OC4CCCCC4)cc23)cc1 [Compound 29]
- Cytotoxic effect microscopically visible (MRC-5 cells): -
- Cytotoxic effect microscopically visible (Hep-2 cells; 33 µM): -
- Cytotoxic effect microscopically visible (MDCK cells): -

Compound: O=C(N[C@@H](Cc1ccc(O)cc1)C(=O)O)c1cc(-c2ccc(F)cc2)c(=O)n2c1sc1ccc(OC3CCCCC3)cc12 [Compound 14]
- EC50 (HCoV-OC43): 1.09 µM
- Cytotoxic effect microscopically visible (Hep-2 cells; 33 µM): -
- CC50 [2]: 62.2 µM

Compound: NC(=O)CCNC(=O)c1cc(-c2ccccc2)c(=O)n2c1sc1ccc(OC3CCCCC3)cc12 [Compound 12]
- Cytotoxic effect microscopically visible (Hep-2 cells; 33 µM): -

Compound: C[C@H](CO)NC(=O)c1cc(-c2ccccc2)c(=O)n2c1sc1ccc(OC3CCCCC3)cc12 [Compound 7]
- Cytotoxic effect microscopically visible (MRC-5 cells): -
- Cytotoxic effect microscopically visible (Hep-2 cells; 3 µM): -
- Cytotoxic effect microscopically visible (Hep-2 cells; 33 µM): -
- Cytotoxic effect microscopically visible (MDCK cells): -

Compound: O=C(N[C@@H](Cc1ccccc1)C(=O)O)c1cc(-c2ccccc2)c(=O)n2c1sc1ccc(OC3CCCCC3)cc12 [Compound 26]
- Cytotoxic effect microscopically visible (MRC-5 cells): -
- Cytotoxic effect microscopically visible (Hep-2 cells; 33 µM): -

Compound: O=C(N[C@@H](Cc1ccc(O)cc1)C(=O)O)c1cc(-c2cccc(F)c2)c(=O)n2c1sc1ccc(OC3CCCCC3)cc12 [Compound 16]
- EC50 (HCoV-OC43): 4.22 µM
- EC50 (RSV-A2; [6]): 18.6 µM
- CC50 [2]: 84.7 µM
- CC50 [3]: 72.9 µM

Compound: NC(=O)c1ncn([C@@H]2O[C@H](CO)[C@@H](O)[C@H]2O)n1 [ribavirin, reference compound]
- EC50 (RSV-A2; [6]): 37 µM
- CC50 (in vitro [4]): > 2400 µM

Compound: O=C(N[C@@H](CO)C(=O)O)c1cc(-c2ccccc2)c(=O)n2c1sc1ccc(OC3CCCCC3)cc12 [Compound 8]
- activity at 0.3 µM (RSV-A2): 100%
- activity at 3 µM (RSV-A2): 100%
- activity at 33 µM (RSV-A2): 98%

Compound: COc1ccc(-c2cc(C(=O)N[C@@H](Cc3ccc(O)cc3)C(=O)O)c3sc4ccc(OC5CCCCC5)cc4n3c2=O)cc1F [Compound 2]
- activity at 0.3 µM (HCoV-OC43): 95%
- activity at 3 µM (HCoV-OC43): 54%
- activity at 33 µM (HCoV-OC43): 1%
- EC50 (HCoV-OC43): 4.67 µM
- Cytotoxic effect microscopically visible (Hep-2 cells; 33 µM): -
- activity at 0.3 µM (RSV-A2): 100%
- activity at 3 µM (RSV-A2): 44%
- CC50 [2]: 82.9 µM

Compound: O=C(O)C1CCN(C(=O)c2cc(-c3ccccc3)c(=O)n3c2sc2ccc(OC4CCCCC4)cc23)C1 (centres unmarked) [Compound 20]
- activity at 0.3 µM (RSV-A2): 100%
- activity at 3 µM (RSV-A2): 100%
- activity at 33 µM (RSV-A2): 100%

Compound: CCOC(=O)C1=C[C@@H](OC(CC)CC)[C@H](NC(C)=O)[C@@H](N)C1 [oseltamivir, reference compound]
- EC50 (IFV-A H1N1): 0.17 µM
- CC50 (in vitro [5]): > 200 µM

Compound: O=C(N[C@@H](Cc1ccc(O)cc1)C(=O)O)c1cc(-c2ccccc2)c(=O)n2c1sc1ccc(OC3CCCC3)cc12 [Compound 17]
- Cytotoxic effect microscopically visible (Hep-2 cells; 33 µM): -
